Measured values from US20250107543A1, “TREATMENT OF AGRICULTURAL, FOOD AND RELATED PRODUCTS FOR ELIMINATING CONTAMINANTS AND ENCHANCING SHELF-LIFE” (priority 2022, published 2025).

What was measured:
E. coli = assay: Detection of E. coli in treated whole red chilli; conditions: whole red chilli 12 kg's, Trial 3
Procedure: (§1) This experiment illustrates the treatment of aerobic micro-organisms, yeast, mould, coliform, E. coli, Salmonella and fat soluble metabolites contaminated whole red chilli.
(§2) The data presented in Table-2 illustrate the efficacy of the present disclosure in detoxifying contaminated whole red chillies. […].
(§3) The red chillies were exposed with Trioxygen for 2 minutes. The products were put under pressure of trioxygen gas for a span of 9 minutes to 26 minutes. Based on the commodity characteristics, the exposure of trioxygen gas was repeated 10 times. Trioxygen gas having a capacity 500 g/h was generated by the trioxygen generator (on site) of the system with a constant oxygen flow rate and delivered to the decontamination chamber through silicon tube. The whole red chillies were then treated to heated air.

yeast, mould = assay: Yeast & Mould Count of treated whole red chilli; conditions: whole red chilli 12 kg's
Procedure: as §1, §2, §3

weevils and weevil eggs [1] = assay: Shelf-Life Assessment of Rice; set-up: key to Visual observation: Pin holes on grain / Visual observation: Powder at the bottom of bag / Weevils/Insects: ✓ Not observed; x Observed; conditions: for Visual observation: Pin holes on grain / Visual observation: Powder at the bottom of bag / Weevils/Insects: Treated sample
Procedure: (§4) The data presented in Table-5 illustrates the efficiency of the system of the present disclosure in pre-conditioning and deactivation of weevils and weevil eggs results in delayed occurrence of insect infestation in grains.
(§5) Grains such as Dry corn, Groundnut, Rice & Wheat were separately pre-conditioned and decontaminated in the system of the present disclosure. Grains were exposed to trioxygen gas for up to 5 minutes. The products were put under pressure of trioxygen gas for a span of 9 minutes to 26 minutes. Trioxygen gas having capacity 500 g/h was generated by the trioxygen generator of the system (on site) with a constant oxygen flow rate and delivered to the decontamination chamber through silicon tube. All products were treated with hot air and then analyzed for the presence of the weevils and weevil eggs the results obtained are summarized in Table-5.

[2] = Pesticide residue in treated whole red chilli: Imidacloprid; conditions: whole red chilli 12 kg's, Trial 1; HOCL and Trioxygen simultaneously
Excerpt: (§6) This experiment illustrates the treatment of whole red chilli contaminated with pesticide residues.
(§7) The data presented in Table-6 illustrates the efficacy of the present disclosure in detoxifying contaminated whole red chillies. Sets of whole red chillies of 12 kg's contaminated with pesticides like Azoxystrobin, Imidacloprid Novaluron and Myclobutanil were used for the experiment. An inert gas (Nitrogen & Carbon-di-oxide) were introduced into the chamber filled with the material to drive out existing air and oxygen in the chamber. Pre-conditioning was carried out with HOCL and trioxygen being introduced simultaneously in decontamination chamber with faster decontamination process in the system with a shorter timeline protocol.
(§8) The red chillies were exposed with HOCL and Trioxygen simultaneously for 2 minutes. The products were put under pressure of 2 bar of trioxygen gas for a span of 9 minutes to 26 minutes. Based on the commodity characteristics, the exposure of trioxygen gas was repeated 10 times. Trioxygen gas having a capacity 500 g/h was generated by the trioxygen generator (on site) of the system with a constant oxygen flow rate and delivered to the decontamination chamber through silicon tube. The whole red chillies were then treated to heated air.

Salmonella = Salmonella presence in treated whole red chilli; conditions: whole red chilli 12 kg's, Trial 1
Procedure: as §1, §2, §3

weevils and weevil eggs [3] = assay: Shelf-Life Assessment of Wheat; set-up: key to Visual observation: Pin holes on grain / Visual observation: Powder at the bottom of bag / Weevils/Insects: ✓ Not observed; x Observed; conditions: for Visual observation: Pin holes on grain / Visual observation: Powder at the bottom of bag / Weevils/Insects: Treated sample
Procedure: as §4, §5

[4] = C17H12O6 content of treated groundnuts; conditions: groundnut
Procedure: The data presented in Table-3 illustrates the efficiency of the system of the present disclosure in detoxifying contaminated groundnuts.
Three sets of C17H12O6 contaminated 3 kg's, 60 kg's and 60 kg's of groundnuts were separately pre-conditioned and decontaminated in the system. In this case, groundnuts were pre-conditioned and exposed with trioxygen gas for up to 5 minutes. The products were put under pressure of trioxygen gas for a span of 9 minutes to 26 minutes. Based on the commodity characteristics, the exposure of trioxygen gas was repeated 15 times. Trioxygen gas having capacity 500 g/h was generated by the trioxygen generator of the system (on site) with a constant oxygen flow rate and delivered to the decontamination chamber through silicon tube. All 3 sets of products were heated and then analyzed for the presence of the contaminant and the results obtained are summarized in Table-3.

[5] = Pesticide residue in treated whole red chilli: Myclobutanil; conditions: whole red chilli 12 kg's, Trial 1; HOCL and Trioxygen simultaneously
Excerpt: as §6, §7, §8

[6] = Pesticide residue in treated whole red chilli: Novaluron; conditions: whole red chilli 12 kg's, Trial 1; HOCL and Trioxygen simultaneously
Excerpt: as §6, §7, §8

In the case of `O=[O+][O-]` [Trioxygen], the “Detection of E. coli, % Reduction” value (E. coli) was 100%, the “Detection of E. coli, Results After Treatment” value (E. coli; before treatment Present/25 g) was “Absent/25 g” and the “Yeast & Mould Count, % Reduction” value (yeast, mould; Trial 1) was 73%. For the same compound, the “Yeast & Mould Count, Results After Treatment” value (yeast, mould; Trial 1, before treatment 1.57 × 10^7 cfu/g) was 4.18 × 10^6 cfu/g, the “Yeast & Mold Count, % Reduction” value (yeast, mould; Trial 2) was 83% and the “Yeast & Mold Count, Results After Treatment” value (yeast, mould; Trial 2, before treatment 1.7 × 10^7 cfu/g) was 2.9 × 10^6 cfu/g. For the same compound, the “Yeast & Mold Count, % Reduction” value (yeast, mould; Trial 3) was 99%, the “Yeast & Mold Count, Results After Treatment” value (yeast, mould; Trial 3, before treatment 3.36 × 10^7 cfu/g) was 1.87 × 10^5 cfu/g and the “No weevil infestation in system treated samples up to” value (weevils and weevil eggs [1]) was “up to 6 months”. For the same compound, the “Treatment effective in delaying infestation up to” value (weevils and weevil eggs [1]) was “up to 6 months”, the “Remarks on Weevils/Insects, Treated” value (weevils and weevil eggs [1]; Post 1.5 Months) was “No weevils/insects seen” and the “Remarks on Weevils/Insects, Treated” value (weevils and weevil eggs [1]; Post 2 Months) was “No weevils/insects seen”. For the same compound, the “Remarks on Weevils/Insects, Treated” value (weevils and weevil eggs [1]; Post 3 Months) was “No weevils/insects seen”, the “Remarks on Weevils/Insects, Treated” value (weevils and weevil eggs [1]; Post 5 Months) was “No weevils/insects seen” and the “Remarks on Weevils/Insects, Treated” value (weevils and weevil eggs [1]; Post 6 Months) was “No weevils/insects seen”. The “Remarks on Weevils/Insects, Treated: black insect alive” value (weevils and weevil eggs [1]; Post 7 Months) was “insects and 1 black insect”, the “Remarks on Weevils/Insects, Treated: small cream coloured insects alive” value (weevils and weevil eggs [1]; Post 7 Months) was 1 small cream coloured and the “Visual observation: Pin holes on grain” value (weevils and weevil eggs [1]; 1.5 Months) was “✓”. For the same compound, the “Visual observation: Powder at the bottom of bag” value (from here on “Visual observation: Powder”) (weevils and weevil eggs [1]; 1.5 Months) was “✓”, the Weevils/Insects (weevils and weevil eggs [1]; 1.5 Months) was “✓” and the “Visual observation: Pin holes on grain” value (weevils and weevil eggs [1]; 2 Months) was “✓”. For the same compound, the “Visual observation: Powder” value (weevils and weevil eggs [1]; 2 Months) was “✓”, the Weevils/Insects (weevils and weevil eggs [1]; 2 Months) was “✓” and the “Visual observation: Pin holes on grain” value (weevils and weevil eggs [1]; 3 Months) was “✓”. For the same compound, the “Visual observation: Powder” value (weevils and weevil eggs [1]; 3 Months) was “✓”, the Weevils/Insects (weevils and weevil eggs [1]; 3 Months) was “✓” and the “Visual observation: Pin holes on grain” value (weevils and weevil eggs [1]; 5 Months) was “✓”. For the same compound, the “Visual observation: Powder” value (weevils and weevil eggs [1]; 5 Months) was “✓”, the Weevils/Insects (weevils and weevil eggs [1]; 5 Months) was “✓” and the “Visual observation: Pin holes on grain” value (weevils and weevil eggs [1]; 6 Months) was “✓”. The “Visual observation: Powder” value (weevils and weevil eggs [1]; 6 Months) was “✓”, the Weevils/Insects (weevils and weevil eggs [1]; 6 Months) was “✓” and the “Visual observation: Pin holes on grain” value (weevils and weevil eggs [1]; 7 Months) was “✓”. The “Visual observation: Powder” value (weevils and weevil eggs [1]; 7 Months) was “✓”, the Weevils/Insects (weevils and weevil eggs [1]; 7 Months) was “x” and the “Imidacloprid, % Reduction” value [2] was 40%. The “Salmonella, % Reduction” value (Salmonella) was 100%, the “Salmonella, Results After Treatment” value (Salmonella; before treatment Present/25 g) was “Absent/25 g” and the “No weevil infestation in system treated samples up to” value (weevils and weevil eggs [3]) was “up to 3 months”. For the same compound, the “Treatment effective in delaying infestation up to” value (weevils and weevil eggs [3]) was “up to 6 months”, the “Remarks on Weevils/Insects, Treated” value (weevils and weevil eggs [3]; Post 1.5 Months) was “No weevils/insects” and the “Remarks on Weevils/Insects, Treated” value (weevils and weevil eggs [3]; Post 2 Months) was “No weevils/insects”. The “Remarks on Weevils/Insects, Treated” value (weevils and weevil eggs [3]; Post 3 Months) was “No weevils/insects”, the “Remarks on Weevils/Insects, Treated: cream/buff colour insect (3 mm) observed alive” value (weevils and weevil eggs [3]; Post 5 Months) was 2 cream/buff colour and the “Remarks on Weevils/Insects, Treated: cream/buff colour insect (3 mm) observed alive” value (weevils and weevil eggs [3]; Post 6 Months) was 3 cream/buff colour. For the same compound, the “Remarks on Weevils/Insects, Treated: cream/buff colour insect (3 mm) observed alive” value (weevils and weevil eggs [3]; Post 7 Months) was 3 cream/buff colour, the “Visual observation: Pin holes on grain” value (weevils and weevil eggs [3]; 1.5 Months) was “✓” and the “Visual observation: Powder” value (weevils and weevil eggs [3]; 1.5 Months) was “✓”. For the same compound, the Weevils/Insects (weevils and weevil eggs [3]; 1.5 Months) was “✓”, the “Visual observation: Pin holes on grain” value (weevils and weevil eggs [3]; 2 Months) was “✓” and the “Visual observation: Powder” value (weevils and weevil eggs [3]; 2 Months) was “✓”. For the same compound, the Weevils/Insects (weevils and weevil eggs [3]; 2 Months) was “✓”, the “Visual observation: Pin holes on grain” value (weevils and weevil eggs [3]; 3 Months) was “✓” and the “Visual observation: Powder” value (weevils and weevil eggs [3]; 3 Months) was “✓”. The Weevils/Insects (weevils and weevil eggs [3]; 3 Months) was “✓”, the “Visual observation: Pin holes on grain” value (weevils and weevil eggs [3]; 5 Months) was “✓” and the “Visual observation: Powder” value (weevils and weevil eggs [3]; 5 Months) was “✓”. The Weevils/Insects (weevils and weevil eggs [3]; 5 Months) was “x”, the “Visual observation: Pin holes on grain” value (weevils and weevil eggs [3]; 6 Months) was “✓” and the “Visual observation: Powder” value (weevils and weevil eggs [3]; 6 Months) was “✓”. For the same compound, the Weevils/Insects (weevils and weevil eggs [3]; 6 Months) was “x”, the “Visual observation: Pin holes on grain” value (weevils and weevil eggs [3]; 7 Months) was “✓” and the “Visual observation: Powder” value (weevils and weevil eggs [3]; 7 Months) was “✓”. The Weevils/Insects (weevils and weevil eggs [3]; 7 Months) was “x”, the “Number of weevils in treated sample compared to those in control, times less” value (weevils and weevil eggs [3]; at month 5) was 4 times and the “C17H12O6, % Reduction” value ([4]; Sr. No. 1, 3 kg's) was 100%. For the same compound, the “C17H12O6, % Reduction” value ([4]; Sr. No. 2, 60 kg's) was 93%, the “C17H12O6, % Reduction” value ([4]; Sr. No. 3, 60 kg's) was 64% and the “Myclobutanil, % Reduction” value [5] was 100%. The “Novaluron, % Reduction” value [6] was 100%.
